# Where two headings read alike, the source gives them in different places.
# What was measured:
# [1] = molecular target: T1, IK(ACh), AcetylCholine activated K-current (Homo sapiens, UniProt P48544+P48549); parameters: key to Blocking activity on IK(ACh): Yes: The compound has been demonstrated to inhibit the particular current (reference within parenthesis).; No: The compound has been demonstrated to not inhibit the particular current (reference within parenthesis).; U: No data regarding interaction of the compound with the particular current has been found in the literature; conditions: cited from earlier work
# T1 construct: electrophysiology technique applied to cardiomyocyte cultures; endogenous in cells
# T1 sequence (P48549 1-501): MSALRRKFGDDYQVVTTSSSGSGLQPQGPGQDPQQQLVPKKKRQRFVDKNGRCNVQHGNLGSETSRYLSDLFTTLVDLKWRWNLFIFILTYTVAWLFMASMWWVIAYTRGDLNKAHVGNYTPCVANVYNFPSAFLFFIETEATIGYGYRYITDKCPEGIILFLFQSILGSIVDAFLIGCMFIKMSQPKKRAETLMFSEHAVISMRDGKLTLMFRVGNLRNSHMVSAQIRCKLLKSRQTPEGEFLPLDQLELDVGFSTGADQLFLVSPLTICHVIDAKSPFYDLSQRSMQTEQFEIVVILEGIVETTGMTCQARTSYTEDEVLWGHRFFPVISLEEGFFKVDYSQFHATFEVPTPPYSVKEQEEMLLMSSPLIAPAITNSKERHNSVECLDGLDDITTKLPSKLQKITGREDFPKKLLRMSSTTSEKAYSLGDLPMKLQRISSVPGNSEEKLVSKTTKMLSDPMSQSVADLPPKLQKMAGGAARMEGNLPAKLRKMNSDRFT
# T1 sequence (P48544 1-419): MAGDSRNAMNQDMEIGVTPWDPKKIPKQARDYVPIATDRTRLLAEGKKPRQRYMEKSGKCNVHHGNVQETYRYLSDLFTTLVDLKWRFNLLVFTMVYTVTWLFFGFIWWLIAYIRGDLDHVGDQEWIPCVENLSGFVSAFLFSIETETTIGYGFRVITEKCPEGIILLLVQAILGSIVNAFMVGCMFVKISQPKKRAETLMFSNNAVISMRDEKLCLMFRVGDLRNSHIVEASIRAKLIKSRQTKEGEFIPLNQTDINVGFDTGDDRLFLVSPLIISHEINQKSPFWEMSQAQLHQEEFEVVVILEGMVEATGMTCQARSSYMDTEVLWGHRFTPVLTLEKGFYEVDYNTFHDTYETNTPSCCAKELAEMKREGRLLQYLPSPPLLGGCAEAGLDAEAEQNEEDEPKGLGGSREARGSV
# [2] = molecular target: T2, IK(ATP), ATP-sensitive K-current (Homo sapiens, UniProt Q14654); parameters: key: Yes: The compound has been demonstrated to inhibit the particular current (reference within parenthesis).; No: The compound has been demonstrated to not inhibit the particular current (reference within parenthesis).; U: No data regarding interaction of the compound with the particular current has been found in the literature; conditions: Table 2, literature; cited from earlier work
# T2 construct: electrophysiology technique applied to cardiomyocyte cultures; endogenous in cells; current induced with dinitrophenole
# [3] = tested on: triiodthyronine (T3)-signalling; assay: Antagonism of T3-signalling action in cells; type: cell-based; conditions: manuscript in preparation
# [4] = molecular target: T3, IK(Ado), adenosine activated K-current (Homo sapiens, UniProt P48544+P48549); parameters: key to Blocking activity on IK(Ado): Yes: The compound has been demonstrated to inhibit the particular current (reference within parenthesis).; No: The compound has been demonstrated to not inhibit the particular current (reference within parenthesis).; U: No data regarding interaction of the compound with the particular current has been found in the literature; conditions: cited from earlier work
# T3 construct: electrophysiology technique applied to cardiomyocyte cultures; endogenous in cells
# T3 sequence (P48549 1-501): T1 sequence (P48549 1-501)
# T3 sequence (P48544 1-419): T1 sequence (P48544 1-419)
# [5] = molecular target: T4, IKs, slow component of the delayed rectifier K-current (Homo sapiens, UniProt P51787); parameters: key: Yes: The compound has been demonstrated to inhibit the particular current (reference within parenthesis).; No: The compound has been demonstrated to not inhibit the particular current (reference within parenthesis).; U: No data regarding interaction of the compound with the particular current has been found in the literature; conditions: Table 2, literature; cited from earlier work
# [6] = molecular target: T5, INa, depolarizing Na-current (Homo sapiens, UniProt Q14524); parameters: key: Yes: The compound has been demonstrated to inhibit the particular current (reference within parenthesis).; No: The compound has been demonstrated to not inhibit the particular current (reference within parenthesis).; U: No data regarding interaction of the compound with the particular current has been found in the literature; conditions: Table 2, literature; cited from earlier work
# [7] = tested on: IK1, inward rectifier K-current; parameters: key: Yes: The compound has been demonstrated to inhibit the particular current (reference within parenthesis).; No: The compound has been demonstrated to not inhibit the particular current (reference within parenthesis).; U: No data regarding interaction of the compound with the particular current has been found in the literature; conditions: Table 2, literature; cited from earlier work
# [8] = tested on: IK1, inward rectifier K-current; assay: Voltage clamp: inward rectifier K-current; type: cell-based; parameters: key: Yes: The compound has been demonstrated to inhibit the particular current (reference within parenthesis).; No: The compound has been demonstrated to not inhibit the particular current (reference within parenthesis).; U: No data regarding interaction of the compound with the particular current has been found in the literature; conditions: Table 2, own voltage clamp data
# Source text: (§1) Results from voltage clamp experiments with compounds of the invention on other ion-currents than IK(Ado), IK(ACh) and IK(ATP) are included in Table 2.
# [9] = molecular target: T4, IKs, slow component of the delayed rectifier K-current; assay: Voltage clamp: slow component of the delayed rectifier K-current; type: cell-based; parameters: key: Yes: The compound has been demonstrated to inhibit the particular current (reference within parenthesis).; No: The compound has been demonstrated to not inhibit the particular current (reference within parenthesis).; U: No data regarding interaction of the compound with the particular current has been found in the literature; conditions: Table 2, own voltage clamp data
# Source text: as §1
# [10] = molecular target: T1, IK(ACh), AcetylCholine activated K-current; assay: Voltage clamp on cardiomyocyte cultures: inhibition of K-current induced by ACh or carbachol; type: cell-based; parameters: key to Blocking activity on IK(ACh): Yes: The compound has been demonstrated to inhibit the particular current (reference within parenthesis).; No: The compound has been demonstrated to not inhibit the particular current (reference within parenthesis).; U: No data regarding interaction of the compound with the particular current has been found in the literature; conditions: for Blocking activity on IK(ACh): Table 2, own voltage clamp data; for inhibition at 50 µM: read-out: Inhibition of IK (ACh) (Induced by ACh or Carbachol), % Inh
# Source text: (§2) In the present invention acute and chronic effects of various compounds have been investigated by using electrophysiology technique applied to cardiomyocyte cultures.
# (§3) The inhibitory effects occur within seconds after induction of the current with ACh, Ado or dinitrophenole (DNP reduces intracellular ATP). The acute inhibitory effects caused by the compounds of the present invention on these K-currents in cardiac muscle tissue had not previously been discovered. The reasons for this include the fact that these ligand activated K-currents (IK(Ado), IK(ACh) and IK(ATP)) are preferentially active in the atrial cardiomyocytes (Workman A J et al. Cardiovasc Res 1999 September;43(4):974-84; Koumi S-I, and Wasserstorm A. American Journal of Physiology 266[35], H1812-H1821. 1994), while previous studies have been carried out with tissue from cardiac ventricles. Furthermore, IK(Ado) and IK(ACh) must first be induced via the M2 or A1 receptor (with ACh and Ado respectively) before any inhibition can be observed. Without any agonist at the extracellular site of the membrane these ligand-gated channels probably have only minor roles in shaping repolarization but, when activated by extracellular acetylcholine or adenosine, they can substantially shorten action potential duration in the atrium (Tristani-Firouzi M et al. Am J Med 2001 January; 110(1):50-9).
# (§4) The following Table 1 illustrates the potency (IC50-values) of compounds of formulae I and II compared with other anti-arrhythmic drugs to inhibit the transmembrane currents IK(Ado) and IK(ACh) after stimulation of the currents with Adenosine or Acetylcholine (or Carbachol).
# [11] = molecular target: T5, INa, depolarizing Na-current; assay: Voltage clamp: depolarizing Na-current; type: cell-based; parameters: key: Yes: The compound has been demonstrated to inhibit the particular current (reference within parenthesis).; No: The compound has been demonstrated to not inhibit the particular current (reference within parenthesis).; U: No data regarding interaction of the compound with the particular current has been found in the literature; conditions: Table 2, own voltage clamp data
# Source text: as §1
# [12] = molecular target: T3, IK(Ado), adenosine activated K-current; assay: Voltage clamp on cardiomyocyte cultures: inhibition of adenosine-induced K-current; type: cell-based; parameters: key to Blocking activity on IK(Ado): Yes: The compound has been demonstrated to inhibit the particular current (reference within parenthesis).; No: The compound has been demonstrated to not inhibit the particular current (reference within parenthesis).; U: No data regarding interaction of the compound with the particular current has been found in the literature; conditions: for Blocking activity on IK(Ado): Table 2, own voltage clamp data; for inhibition at 50 µM: read-out: Inhibition of IK (Ado) Induced by Adenosine, % Inh
# Source text: as §2, §3, §4
# [13] = molecular target: T2, IK(ATP), ATP-sensitive K-current; assay: Voltage clamp on cardiomyocyte cultures: inhibition of ATP-sensitive K-current (induced with DNP); type: cell-based; parameters: key: Yes: The compound has been demonstrated to inhibit the particular current (reference within parenthesis).; No: The compound has been demonstrated to not inhibit the particular current (reference within parenthesis).; U: No data regarding interaction of the compound with the particular current has been found in the literature; conditions: Table 2, own voltage clamp data
# Source text: as §2, §3
# [14] = tested on: Ito, transient outward K-current; assay: Voltage clamp: transient outward K-current; type: cell-based; parameters: key: Yes: The compound has been demonstrated to inhibit the particular current (reference within parenthesis).; No: The compound has been demonstrated to not inhibit the particular current (reference within parenthesis).; U: No data regarding interaction of the compound with the particular current has been found in the literature; conditions: Table 2, own voltage clamp data
# Source text: as §1
# T5 sequence (Q14524 whole entry): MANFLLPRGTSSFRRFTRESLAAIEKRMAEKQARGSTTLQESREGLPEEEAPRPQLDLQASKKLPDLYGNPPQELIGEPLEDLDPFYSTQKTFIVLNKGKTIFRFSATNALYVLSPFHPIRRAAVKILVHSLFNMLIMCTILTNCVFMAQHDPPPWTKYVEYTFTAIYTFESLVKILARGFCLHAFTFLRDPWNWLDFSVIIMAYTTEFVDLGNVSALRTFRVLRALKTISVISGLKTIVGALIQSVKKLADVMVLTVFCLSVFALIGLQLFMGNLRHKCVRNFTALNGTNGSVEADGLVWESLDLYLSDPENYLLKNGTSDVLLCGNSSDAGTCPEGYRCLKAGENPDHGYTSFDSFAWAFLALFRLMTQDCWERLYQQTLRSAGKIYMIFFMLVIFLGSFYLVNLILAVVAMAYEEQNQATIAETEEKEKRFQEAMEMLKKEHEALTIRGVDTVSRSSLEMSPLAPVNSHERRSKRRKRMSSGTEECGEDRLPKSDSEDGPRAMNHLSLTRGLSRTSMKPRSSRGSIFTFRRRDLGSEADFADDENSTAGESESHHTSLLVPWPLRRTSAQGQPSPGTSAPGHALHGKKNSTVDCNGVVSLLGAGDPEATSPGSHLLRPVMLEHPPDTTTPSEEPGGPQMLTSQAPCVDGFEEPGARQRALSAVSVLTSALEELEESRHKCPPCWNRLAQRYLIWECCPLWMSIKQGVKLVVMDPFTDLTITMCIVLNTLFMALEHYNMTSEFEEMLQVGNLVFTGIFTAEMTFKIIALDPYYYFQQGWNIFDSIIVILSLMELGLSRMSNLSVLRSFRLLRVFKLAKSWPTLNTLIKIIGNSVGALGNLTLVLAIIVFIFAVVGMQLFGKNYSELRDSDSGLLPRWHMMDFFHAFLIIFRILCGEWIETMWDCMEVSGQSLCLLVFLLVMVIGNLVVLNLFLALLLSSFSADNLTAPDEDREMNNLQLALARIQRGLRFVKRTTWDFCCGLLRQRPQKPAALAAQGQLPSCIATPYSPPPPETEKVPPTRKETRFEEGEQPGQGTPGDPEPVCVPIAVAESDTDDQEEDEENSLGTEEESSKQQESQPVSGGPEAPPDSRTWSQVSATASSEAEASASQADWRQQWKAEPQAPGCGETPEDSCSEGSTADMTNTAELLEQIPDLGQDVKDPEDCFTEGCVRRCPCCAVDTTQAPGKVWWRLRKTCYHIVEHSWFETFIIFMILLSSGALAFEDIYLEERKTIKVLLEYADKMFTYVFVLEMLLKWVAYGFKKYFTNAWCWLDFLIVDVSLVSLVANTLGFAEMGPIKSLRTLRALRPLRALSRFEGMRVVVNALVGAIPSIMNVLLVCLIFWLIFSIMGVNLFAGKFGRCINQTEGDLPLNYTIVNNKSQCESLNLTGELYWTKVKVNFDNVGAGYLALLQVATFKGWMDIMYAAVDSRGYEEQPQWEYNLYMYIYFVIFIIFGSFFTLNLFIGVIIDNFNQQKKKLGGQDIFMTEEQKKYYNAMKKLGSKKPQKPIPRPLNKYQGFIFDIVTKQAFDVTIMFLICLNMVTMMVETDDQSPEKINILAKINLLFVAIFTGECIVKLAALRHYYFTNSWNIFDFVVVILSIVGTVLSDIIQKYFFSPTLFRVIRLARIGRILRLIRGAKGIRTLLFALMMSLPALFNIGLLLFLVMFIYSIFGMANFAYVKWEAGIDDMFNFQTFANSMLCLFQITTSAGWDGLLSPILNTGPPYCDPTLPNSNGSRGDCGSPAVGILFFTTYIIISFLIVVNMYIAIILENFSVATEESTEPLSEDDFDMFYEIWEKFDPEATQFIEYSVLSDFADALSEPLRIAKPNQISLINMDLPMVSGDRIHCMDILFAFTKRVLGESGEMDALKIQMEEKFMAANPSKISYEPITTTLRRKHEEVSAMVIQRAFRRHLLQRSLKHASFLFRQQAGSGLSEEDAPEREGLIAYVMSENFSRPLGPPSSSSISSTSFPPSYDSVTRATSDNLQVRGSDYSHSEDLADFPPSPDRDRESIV
# T2 sequence (Q14654 whole entry): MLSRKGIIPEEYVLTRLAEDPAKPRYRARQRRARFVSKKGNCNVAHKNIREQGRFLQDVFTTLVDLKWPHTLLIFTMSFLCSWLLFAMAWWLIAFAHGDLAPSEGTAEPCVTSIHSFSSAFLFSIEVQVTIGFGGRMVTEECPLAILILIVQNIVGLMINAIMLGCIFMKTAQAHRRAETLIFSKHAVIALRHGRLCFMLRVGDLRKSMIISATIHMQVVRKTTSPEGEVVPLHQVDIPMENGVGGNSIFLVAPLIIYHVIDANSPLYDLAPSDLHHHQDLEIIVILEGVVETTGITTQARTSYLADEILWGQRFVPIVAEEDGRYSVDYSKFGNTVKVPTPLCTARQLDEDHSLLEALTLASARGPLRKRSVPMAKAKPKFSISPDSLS
# T2 sequence (O60706 whole entry partner): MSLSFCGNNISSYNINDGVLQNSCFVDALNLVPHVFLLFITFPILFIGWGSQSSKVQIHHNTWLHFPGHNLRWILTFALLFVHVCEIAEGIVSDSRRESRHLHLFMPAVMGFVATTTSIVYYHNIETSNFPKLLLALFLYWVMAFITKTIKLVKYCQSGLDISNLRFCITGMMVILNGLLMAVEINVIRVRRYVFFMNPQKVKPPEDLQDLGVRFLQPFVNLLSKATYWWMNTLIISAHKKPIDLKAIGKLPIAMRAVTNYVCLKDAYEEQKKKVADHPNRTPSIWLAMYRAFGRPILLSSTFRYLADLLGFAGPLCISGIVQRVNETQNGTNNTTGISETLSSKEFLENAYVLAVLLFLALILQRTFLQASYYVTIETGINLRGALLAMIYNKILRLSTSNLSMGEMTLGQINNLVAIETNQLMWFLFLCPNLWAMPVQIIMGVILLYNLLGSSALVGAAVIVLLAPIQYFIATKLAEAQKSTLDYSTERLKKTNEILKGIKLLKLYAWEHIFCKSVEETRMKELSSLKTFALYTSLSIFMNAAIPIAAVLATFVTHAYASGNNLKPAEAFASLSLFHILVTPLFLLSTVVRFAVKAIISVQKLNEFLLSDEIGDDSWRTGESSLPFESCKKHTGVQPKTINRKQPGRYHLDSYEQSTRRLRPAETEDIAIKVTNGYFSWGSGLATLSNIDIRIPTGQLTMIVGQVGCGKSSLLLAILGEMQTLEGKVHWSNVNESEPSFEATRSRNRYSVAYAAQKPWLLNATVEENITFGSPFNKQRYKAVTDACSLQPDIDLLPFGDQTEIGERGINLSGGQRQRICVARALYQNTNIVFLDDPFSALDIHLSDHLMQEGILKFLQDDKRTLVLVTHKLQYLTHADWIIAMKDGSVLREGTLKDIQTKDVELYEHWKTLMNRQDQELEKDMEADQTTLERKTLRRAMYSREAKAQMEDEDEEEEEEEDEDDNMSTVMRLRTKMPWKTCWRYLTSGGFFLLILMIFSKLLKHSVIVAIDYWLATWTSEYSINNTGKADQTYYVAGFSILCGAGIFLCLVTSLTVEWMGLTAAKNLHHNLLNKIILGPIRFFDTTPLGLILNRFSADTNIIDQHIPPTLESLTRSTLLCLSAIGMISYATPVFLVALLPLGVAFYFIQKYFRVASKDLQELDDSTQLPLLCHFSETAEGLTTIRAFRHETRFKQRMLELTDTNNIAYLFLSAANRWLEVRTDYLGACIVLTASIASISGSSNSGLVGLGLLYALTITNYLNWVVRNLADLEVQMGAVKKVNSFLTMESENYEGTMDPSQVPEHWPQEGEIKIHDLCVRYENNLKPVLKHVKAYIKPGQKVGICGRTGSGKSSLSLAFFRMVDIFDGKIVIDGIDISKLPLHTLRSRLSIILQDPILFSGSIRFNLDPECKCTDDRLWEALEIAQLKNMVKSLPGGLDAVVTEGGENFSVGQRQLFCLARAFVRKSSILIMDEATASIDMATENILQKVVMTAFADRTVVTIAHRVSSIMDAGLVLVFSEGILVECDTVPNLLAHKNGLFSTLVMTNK
Structure (SMILES),"Blocking activity on IK(ACh) ([1]; Table 2, literature)","Block of ligand-gated current IK(ACh), in words ([1]; Watanabe et al.)","IC50 ([1]; current induced by ACh or carbachol, literature value, read-out: Inhibition of IK (ACh) (Induced by ACh or Carbachol) (IC50)) [µM]",Blocking activity on IK(ATP) [2],Antagonism of triiodthyronine (T3)-signalling action in cells [3],"Blocking activity on IK(Ado) ([4]; Table 2, literature)","Block of ligand-gated current IK(Ado), in words ([4]; Watanabe et al.)","IC50 ([4]; current induced by adenosine, literature value, read-out: Inhibition of IK (Ado) Induced by Adenosine (IC50)) [µM]",Blocking activity on IKs [5],Blocking activity on INa [6],Blocking activity on IK1 [7],Blocking activity on IK1 [8],Blocking activity on IKs [9],Blocking activity on IK(ACh) [10],inhibition at 50 µM [10] [%],Blocking activity on INa [11],Blocking activity on IK(Ado) [12],inhibition at 50 µM [12] [%],Blocking activity on IK(ATP) [13],Blocking activity on Ito [14]
CCCCc1oc2ccccc2c1C(=O)c1cc(I)c(OCCN(CC)CC)c(I)c1 [Amiodarone],Yes,does block,2,Yes,antagonize,Yes,does block,2,Yes,Yes,Yes,–,–,–,–,–,–,–,–,–
"Cc1oc2ccccc2c1Cc1cc(C(C)C)c(OCC(=O)O)c(C(C)C)c1 [Example E4, 2-methyl-3-(3,5-diisopropyl-4-carboxymethoxybenzyl)benzofuran]",–,–,–,–,–,–,–,–,–,–,–,No,No,Yes,100,No,Yes,100,Yes,No
"Cc1oc2ccccc2c1Cc1cc(I)c(OCC(=O)O)c(I)c1 [Example E6, 2-methyl-3-(3,5-diiodo-4-carboxymethoxy-benzyl)benzofuran]",–,–,–,–,–,–,–,–,–,–,–,No,No,Yes,100,No,Yes,100,Yes,No

# Reference: patent US20050065208A1, “Benzofuranes and their use in the treatment of atrial fibrillation” (priority 2001, published 2005)
